Source: ChEMBL document CHEMBL5614418, “Discovery of novel dihydropyrrolidone-thiadiazole compound crosstalk between the YycG/F two-component regulatory pathway and cell membrane homeostasis to combat methicillin-resistant Staphylococcus aureus” (Eur J Med Chem, 2024)
Calls of active or inactive are those of the source. No cut-off for these calls is given here.

Tests used:
[1] = system: Staphylococcus aureus; test: Antibacterial activity against methicillin sensitive Staphylococcus aureus SA113 assessed as increase in membrane permeability at 1 to 4 times MIC incubated for 30 mins by PI staining based fluorescence assay; type: functional, organism-based
[2] = system: Staphylococcus aureus; test: Downregulation of pflB gene expression level in methicillin sensitive Staphylococcus aureus SA113 at 1/2 MIC by RT-qPCR analysis; type: functional
[3] = system: Staphylococcus epidermidis; test: Antibacterial activity against Staphylococcus epidermidis SE1457 in presence of palmitic acid; type: functional, organism-based
[4] = system: Staphylococcus aureus; test: Downregulation of arcC1 expression level in methicillin sensitive Staphylococcus aureus SA113 at 1/2 MIC incubated for 2 hrs by MS/MS analysis; type: functional
[5] = system: Staphylococcus aureus; test: Downregulation of fructosre-1, 6-diphosphate level in methicillin sensitive Staphylococcus aureus SA113 at 1/2 MIC incubated for 30 mins; type: functional
[6] = system: Staphylococcus epidermidis; test: Induction of matured biofilm eradication in Staphylococcus epidermidis SE1457 assessed as log reduction in bacterial count in biofilm at 8 times MIC incubated for 48 hrs by agar plate method; type: functional

With O=C(C1=C(O)C(=O)N(c2nnc(SCc3ccccc3Cl)s2)C1c1ccccc1O)c1cc2ccccc2o1 (stereo unspecified) the Activity [1] was “Active”, the Activity [2] was “Active” and the Activity [3] was “inactive”. For the same compound, the Activity [4] was “Active”, the Activity [5] was “Active” and the “log(activity)” value [6] was 1.
